In patent US4950686A, “Anti-mycoplasma agent” (Shionogi & Co., Ltd., priority 1986, dated 1990):
≈ marks a conversion by molar mass, not a printed value. Blank lines part the entries; values can stand above or below the molecule they belong to.

Experiments:
[1] = tested on: Mycoplasma hyopneumoniae ST-11 (standard strain); assay: Anti-mycoplasma activity in vitro (MIC, broth dilution), strain ST-11; format: cell-based; details: Mesomycoplasma hyopneumoniae, Mh ST-11; read-out: MIC
Protocol: (§1) (1) Anti-mycoplasma activity test in vitro
(§2) MIC values of each of Tropolones were measured on the following strains according to the following method.
(b) Mycoplasma hyopneumoniae
Strain: ST-11 (standard strain)
Medium: 850 ml of Hanks' solution supplemented with 0.5% lactoalbumin, 50 ml of 25% yeast, 100 ml of equine serum and 4-6 ml of 0.5% phenol red (pH 7.4-7.6)
(§3) Method: Broth dilution method
Inoculum: Culture which is incubated for 3-4 days and diluted 10 times with the broth if color of the broth becomes yellow then. If it needs over 4 days until color of the broth becomes yellow, it is further subcultured. This is diluted 10 times with the broth to give inoculum.
Assay is done in the same manner as in the above (a).

[2] = tested on: Mycoplasma gallisepticum T-7-T (wild strain, tylosin-resistant); assay: Anti-mycoplasma activity in vitro (MIC, broth dilution), strain T-7-T; format: cell-based; details: Mycoplasmoides gallisepticum, 168 h, Mg T-7-T, 37° C., 7 days; read-out: MIC
Protocol: as §1, §2
(§4) (a) Mycoplasma gallisepticum
(§5) T-7-T (wild strain, tylosin-resistant)
(§6) Medium: Chick PPLO broth supplemented with 20% equine serum (Eiken Kagaku Co., Ltd.)
as §3
(§7) Inoculum: Culture incubated at 37° C. for 24-48 hr which is diluted with broth to 10^6 CCU/ml immediately before the use.
(§8) To 1.6 ml of the broth is added 0.2 ml of an agent which has been subjected to 2-fold dilution and then added 0.2 ml of inoculum, which is incubated at 37° C. for 7 days.

[3] = tested on: Mycoplasma gallisepticum S6 (standard strain); assay: Anti-mycoplasma activity in vitro (MIC, broth dilution), strain S6; format: cell-based; details: Mycoplasmoides gallisepticum, 168 h, Mg S6, 37° C., 7 days; read-out: MIC
Protocol: as §1, §2, §4, §6, §3, §7, §8

[4] = tested on: Mycoplasma gallisepticum MR-1 (wild strain, tylosin-resistant); assay: Anti-mycoplasma activity in vitro (MIC, broth dilution), strain MR-1; format: cell-based; details: Mycoplasmoides gallisepticum, 168 h, Mg MR-1, 37° C., 7 days; read-out: MIC
Protocol: as §1, §2, §4
(§9) MR-1 (wild strain, tylosin-resistant)
as §6, §3, §7, §8

[5] = tested on: Mycoplasma gallisepticum T-7-T (wild strain, tylosin-resistant); assay: Mycoplasma gallisepticum air-sac infection method in chicken, strain T-7-T; format: in vivo, Mycoplasma gallisepticum; SPF chicken (white leghorn);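 for Index of Isolation: index = (P×1 + Q×2 + R×3)/S with range 0 to 6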
Protocol: (§10) (2) Test of Effectiveness Mycoplasma gallisepticum air-sac infection method
as §5
(§11) Inoculation: To the right air-sac of 9 days old SPF chicken (a white leghorn) which has abstained from water and feed one day before is inoculated 0.20-0.25 ml/chicken of fresh mycoplasma culture incubated for 24-48 hr and diluted with broth (usually 100 times). The concentration in Table 2 is shown in a unit of mg/ml.
(§12) Medium: Chick PPLO broth supplemented with 15% equine serum (Eiken Kagaku Co., Ltd.)
(§13) Administration: A compound of this invention dissolved or suspended in the following solution is orally and forcibly administered once by a cannula immediately after the infection.
(§14) Anatomization and Isolation of Microorganism: The chickens are anatomized 5 days after the infection, and the right and left air sacs are investigated whether they are attacked with a disease or not. The change caused by the disease is represented in four degrees; -: no change, +: slight, ++: medium and +++: serious. Microorganism is isolated from the right and left air-sacs and the trachea by using a sterilized applicator.
(§15) Judgement: Judgement is done through an index of an air-sac disease and an index of a microorganism-isolation.
(§16) Index of an air-sac-disease: First, indexes in the right and left air-sacs are separately calculated according to the following formula;
(§17) {degree of disease (0-3)×chickens}/anatomized chickens
(§18) and the index is calculated by the following formula;
(§19) (index of right air-sac)×1+(index of left air-sac)×2
(§20) Index of a microorganism isolation:
(§21) P: chickens from the right air-sac of which microorganism is isolated,
(§22) Q: chickens from the trachea of which microorganism is isolated,
(§23) R: chickens from the left air-sac of which microorganism is isolated, and
(§24) S: chickens investigated.

[6] = tested on: Mycoplasma gallisepticum MR-1 (wild strain, tylosin-resistant); assay: Mycoplasma gallisepticum air-sac infection method in chicken, strain MR-1;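 for Index of Isolation: index = (P×1 + Q×2 + R×3)/S with range 0 to 6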; format: in vivo, Mycoplasma gallisepticum; SPF chicken (white leghorn); details: 100 mg/kg × once oral, 10 mg/ml sol. b
Protocol: as §10, §9, §11, §12, §13, §14, §15, §16, §17, §18, §19, §20, §21, §22, §23, §24

[7] = 200 mg/kg × once oral, 20 mg/ml DW, inoculum 1.9 × 10^5
[8] = 200 mg/kg × once oral, 20 mg/ml DW, inoculum 1.9 × 10^5, range 0-6.0
[9] = 200 mg/kg × once oral, 20 mg/ml DW, inoculum 1.9 × 10^5, range 0-9.0
[10] = 100 mg/kg × once oral, 10 mg/ml sol. b, inoculum 10^2

SMILES: CC(C)(C)OC(=O)COc1cccccc1=O [Compound 18, O-(tert-Butyloxycarbonylmethyl)tropolone]
MIC [1]: > 25 µg/mL
MIC [3]: > 25 µg/mL

SMILES: CCOC(=O)C(C)Oc1cccccc1=O (stereo not shown) [Compound 20, O-(1-Ethoxycarbonylethyl)tropolone]
MIC [1]: > 25 µg/mL
MIC [2]: > 25 µg/mL
MIC [3]: > 25 µg/mL

SMILES: C[C@H]1c2cccc(O)c2C(=O)C2=C(O)[C@]3(O)C(=O)C(C(N)=O)=C(O)[C@@H](N(C)C)[C@@H]3[C@@H](O)[C@@H]21 [doxycycline, reference compound]
Change of air-sac, left: + (chickens) [5, 7]: 2
Change of air-sac, left: ++ (chickens) [5, 7]: 1
Change of air-sac, left: +++ (chickens) [5, 7]: 0
Change of air-sac, left: - (chickens) [5, 7]: 2
Change of air-sac, right: + (chickens) [5, 7]: 0
Change of air-sac, right: ++ (chickens) [5, 7]: 4
Change of air-sac, right: +++ (chickens) [5, 7]: 0
Change of air-sac, right: - (chickens) [5, 7]: 1
Isolation, L (left air-sac) [5, 7]: 5
Isolation, R (right air-sac) [5, 7]: 5
Isolation, T (trachea) [5, 7]: 5
Mycoplasma Isolated Chickens [5, 7]: 5
Index of Isolation [5, 8]: 6.0
Index of Disease [5, 9]: 3.2

SMILES: CC[C@H]1OC(=O)C[C@@H](O)[C@H](C)[C@@H](O[C@@H]2O[C@H](C)[C@@H](O[C@H]3C[C@@](C)(O)[C@@H](O)[C@H](C)O3)[C@H](N(C)C)[C@H]2O)[C@@H](CC=O)C[C@@H](C)C(=O)/C=C/C(C)=C/[C@@H]1CO[C@@H]1O[C@H](C)[C@@H](O)[C@@H](OC)[C@H]1OC [tylosin, reference compound]
Change of air-sac, left: + (chickens) ([6]; inoculum 0.3 × 10^5): 1
Change of air-sac, left: ++ (chickens) ([6]; inoculum 0.3 × 10^5): 0
Change of air-sac, left: +++ (chickens) ([6]; inoculum 0.3 × 10^5): 0
Change of air-sac, left: - (chickens) ([6]; inoculum 0.3 × 10^5): 5
Change of air-sac, right: + (chickens) ([6]; inoculum 0.3 × 10^5): 0
Change of air-sac, right: ++ (chickens) ([6]; inoculum 0.3 × 10^5): 3
Change of air-sac, right: +++ (chickens) ([6]; inoculum 0.3 × 10^5): 3
Change of air-sac, right: - (chickens) ([6]; inoculum 0.3 × 10^5): 0
Isolation, L (left air-sac) ([6]; inoculum 0.3 × 10^5): 6
Isolation, R (right air-sac) ([6]; inoculum 0.3 × 10^5): 6
Isolation, T (trachea) ([6]; inoculum 0.3 × 10^5): 6
Mycoplasma Isolated Chickens ([6]; inoculum 0.3 × 10^5): 6
Index of Isolation ([6]; inoculum 0.3 × 10^5, range 0-6.0): 6.0
Index of Disease ([6]; inoculum 0.3 × 10^5, range 0-9.0): 2.8
Change of air-sac, left: + (chickens) [5, 10]: 0
Change of air-sac, left: ++ (chickens) [5, 10]: 2
Change of air-sac, left: +++ (chickens) [5, 10]: 0
Change of air-sac, left: - (chickens) [5, 10]: 6
Change of air-sac, right: + (chickens) [5, 10]: 1
Change of air-sac, right: ++ (chickens) [5, 10]: 5
Change of air-sac, right: +++ (chickens) [5, 10]: 1
Change of air-sac, right: - (chickens) [5, 10]: 1
Isolation, L (left air-sac) [5, 10]: 8
Isolation, R (right air-sac) [5, 10]: 7
Isolation, T (trachea) [5, 10]: 8
Mycoplasma Isolated Chickens [5, 10]: 8
Index of Isolation ([5]; 100 mg/kg × once oral, 10 mg/ml sol. b, inoculum 10^2, range 0-6.0): 5.60
Index of Disease ([5]; 100 mg/kg × once oral, 10 mg/ml sol. b, inoculum 10^2, range 0-9.0): 2.80
Change of air-sac, left: + (chickens) [5, 7]: 0
Change of air-sac, left: ++ (chickens) [5, 7]: 0
Change of air-sac, left: +++ (chickens) [5, 7]: 0
Change of air-sac, left: - (chickens) [5, 7]: 5
Change of air-sac, right: + (chickens) [5, 7]: 0
Change of air-sac, right: ++ (chickens) [5, 7]: 1
Change of air-sac, right: +++ (chickens) [5, 7]: 4
Change of air-sac, right: - (chickens) [5, 7]: 0
Isolation, L (left air-sac) [5, 7]: 4
Isolation, R (right air-sac) [5, 7]: 5
Isolation, T (trachea) [5, 7]: 5
Mycoplasma Isolated Chickens [5, 7]: 5
Index of Isolation [5, 8]: 5.4
Index of Disease [5, 9]: 2.8

Second part, the molecule after the results:

MIC [1]: 0.39 µg/mL (≈ 2.39 µM)
MIC [2]: 6.25 µg/mL (≈ 38.3 µM)
MIC [3]: 6.25 µg/mL (≈ 38.3 µM)
MIC [4]: 12.5 µg/mL (≈ 76.6 µM)
SMILES: N#CSc1cccccc1=O [Compound 15, 2-Thiocyanatotropone]

MIC [1]: 6.25 µg/mL (≈ 22.6 µM)
MIC [3]: 3.13 µg/mL (≈ 11.3 µM)
SMILES: Cc1ccc(S(=O)(=O)Oc2cccccc2=O)cc1 [Compound 16, O-(p-Toluensulfonyl)tropolone]

MIC [1]: > 25 µg/mL
MIC [3]: > 25 µg/mL
SMILES: CC(Oc1cccccc1=O)C(=O)O (stereo not shown) [Compound 17, O-(1-Carboxyethyl)tropolone]

MIC [1]: 0.2 µg/mL (≈ 0.832 µM)
MIC [3]: 0.78 µg/mL (≈ 3.25 µM)
SMILES: O=C(COc1cccccc1=O)c1ccccc1 [Compound 21, O-(Benzoylmethyl)tropolone]

MIC [1]: 25 µg/mL (≈ 154 µM)
MIC [3]: > 25 µg/mL
SMILES: C=CCOc1cccccc1=O [Compound 22, O-Allyltropolone]
